Experimental data as given in patent US20070134261A1, “Effectors of innate immunity” (priority 2001, published 2007).
Where two headings read alike, the source gives them in different places. No end group written: not given here.

Tests used:
[1] = type: cell-based
[2] = tested on: human bronchial epithelial cells (HBE); assay: LDH release assay (Cytotoxicity Detection Kit); type: cell-based; conditions: 24 hours; for LDH Release (OD490 nm): 100 μg/ml, no peptide control 1.0 ± 0.05
Protocol: (§1) The potential toxicity of the peptides was measured in two ways. First, the Cytotoxicity Detection Kit (Roche) (Lactate dehydrogenase-LDH) Assay was used. It is a colorimetric assay for the quantification of cell death and cell lysis, based on the measurement of LDH activity released from the cytosol of damaged cells into the supernatant. LDH is a stable cytoplasmic enzyme present in all cells and it is released into the cell culture supernatant upon damage of the plasma membrane. An increase in the amount of dead or plasma membrane-damaged cells results in an increase of the LDH enzyme activity in the culture supernatant as measured with an ELISA plate reader, OD490 nm (the amount of color formed in the assay is proportional to the number of lysed cells). In this assay, human bronchial epithelial cells (I6HBEo14, HBE) cells were incubated with 100 μg of peptide for 24 hours, the supernatant removed and tested for LDH. The other assay used to measure toxicity of the cationic peptides was the WST-1 assay (Roche). This assay is a colorimetric assay for the quantification of cell proliferation and cell viability, based on the cleavage of the tetrazolium salt WST-1 by mitochondrial dehydrogenases in viable cells (a non-radioactive alternative to the [^3H]-thymidine incorporation assay). In this assay, HBE cells were incubated with 100 μg of peptide for 24 hours, and then 10 μl/well Cell Proliferation Reagent WST-1 was added. The cells are incubated with the reagent and the plate is then measured with an ELISA plate reader, OD490 nm.

HBE cells = assay: WST-1 assay (cell viability); type: cell-based, human
Protocol: as §1

A549 epithelial cells = assay: Human Operon arrays (PRHU04-S1) of A549 cells treated with peptide alone (Tables 31-37, 53); conditions: peptide 50 μg/ml, 4 h, A549 cells
[3] = Citobacter rhodensis, overnight, 96-well plate
[4] = Enterohaemorrhagic E. coli, overnight, 96-well plate
[5] = Escherichia coli, overnight, 96-well plate
[6] = Pseudomonas aeruginosa, overnight, 96-well plate
[7] = Salmonella enteritidis ssp. typhimurium, overnight, 96-well plate

## KTKKFAKMLMMALKKVVSTAKPLAILS [SEQ ID NO: 42]
[1]; 24 h
  MIC, C. rhod.: 2 µg/mL
  MIC, E. coli: 1.5 µg/mL
  MIC, EHEC: 1 µg/mL
  MIC, P. aerug.: 4 µg/mL
  MIC, S. aureus: 64 µg/mL
  MIC, S. typhim.: 2 µg/mL
[2]
  LDH Release (OD490 nm): 3.4 ± 0.2 OD490 nm
[2]; as measured by both assays (LDH, WST-1), HBE cells
  toxicity / membrane damage: did induce membrane damage
HBE cells
  OD490 nm (WST-1 cell viability): 0.39 ± 0.08 OD490 nm

## KWKSFLRTFKSPVRTVFHTALKPISS [SEQ ID NO: 53]
[1]; [3]
  MIC, C. rhod.: 16 µg/mL
[1]; [4]
  MIC, EHEC: 8 µg/mL
[1]; [5]
  MIC, E. coli: 4 µg/mL
[1]; [6]
  MIC, P. aerug.: 8 µg/mL
[1]; [7]
  MIC, S. typhim.: 8 µg/mL
[2]
  LDH Release (OD490 nm): 103 ± 0.06 OD490 nm
HBE cells
  OD490 nm (WST-1 cell viability): 1.51 ± 0.37 OD490 nm

## KWKSYAHTIMSPVRLIFHTALKPISS [SEQ ID NO: 48]
[1]; [3]
  MIC, C. rhod.: 1 µg/mL
[1]; [4]
  MIC, EHEC: 2 µg/mL
[1]; [5]
  MIC, E. coli: 16 µg/mL
[1]; [6]
  MIC, P. aerug.: 128 µg/mL
[1]; [7]
  MIC, S. typhim.: 16 µg/mL
[2]
  LDH Release (OD490 nm): 0.95 ± 0.05 OD490 nm
HBE cells
  OD490 nm (WST-1 cell viability): 0.93 ± 0.08 OD490 nm

## LSRIAPAIPWAKL [SEQ ID NO: 10]
[1]; 24 h
  MIC, EHEC: 64 µg/mL
[2]
  LDH Release (OD490 nm): 1.04 ± 0.04 OD490 nm
HBE cells
  OD490 nm (WST-1 cell viability): 1.22 ± 0.05 OD490 nm

## NLPDLKKPRVPATS [ID 17]
A549 epithelial cells
  ID#:ctrl intensity ratio, M14565 cytochrome P450: 6.3

## NLPDLKKPRVPATS [SEQ ID NO: 17]
[2]
  LDH Release (OD490 nm): 0.94 ± 0.04 OD490 nm
HBE cells
  OD490 nm (WST-1 cell viability): 1.60 ± 0.46 OD490 nm

## Polymyxin
[1]; [3]
  MIC, C. rhod.: 0.25 µg/mL
[1]; [4]
  MIC, EHEC: 0.5 µg/mL
[1]; [5]
  MIC, E. coli: 0.25 µg/mL
[1]; [6]
  MIC, P. aerug.: 0.25 µg/mL
[1]; [7]
  MIC, S. typhim.: 0.5 µg/mL
[1]; Staphylococcus aureus, overnight, 96-well plate
  MIC, S. aureus: 16 µg/mL

## RAAFKWAWAWWRRK [ID 23]
A549 epithelial cells
  ID#:ctrl intensity ratio, X65962 cytochrome P-450: 19.8

## RAPYWPWAWARPRK [ID 21]
A549 epithelial cells
  ID#:ctrl intensity ratio, X65962 cytochrome P-450: 5.7

## RLARIVVIRVAR-NH2 [SEQ ID NO: 3, reference compound]
[2]
  LDH Release (OD490 nm): 1.05 ± 0.04 OD490 nm
HBE cells
  OD490 nm (WST-1 cell viability): 1.35 ± 0.12 OD490 nm

## RRARIVPAIPVARR [SEQ ID NO: 9]
[2]
  LDH Release (OD490 nm): 1.6 ± 0.03 OD490 nm
HBE cells
  OD490 nm (WST-1 cell viability): 1.69 ± 0.29 OD490 nm

## RRAWWKAWWARRK [ID 20]
A549 epithelial cells
  ID#:ctrl intensity ratio, X65962 cytochrome P-450: 25.3

## RRRWKWAWPRRK [ID 24]
A549 epithelial cells
  ID#:ctrl intensity ratio, X65962 cytochrome P-450: 12.0

## SELPGLKHPCVPGS [SEQ ID NO: 13]
[2]
  LDH Release (OD490 nm): 0.93 ± 0.06 OD490 nm
HBE cells
  OD490 nm (WST-1 cell viability): 1.23 ± 0.11 OD490 nm

## SLPIKHDRLPATS [ID 15]
A549 epithelial cells
  ID#:ctrl intensity ratio, M14565 cytochrome P450: 3.6

## TTLGPVKRDSIPGE [ID 14]
A549 epithelial cells
  ID#:ctrl intensity ratio, M14565 cytochrome P450: 5.0

## TTLGPVKRDSIPGE [SEQ ID NO: 14]
[2]
  LDH Release (OD490 nm): 0.99 ± 0.05 OD490 nm
HBE cells
  OD490 nm (WST-1 cell viability): 1.25 ± 0.02 OD490 nm

## Triton X-100 [reference compound]
[2]
  LDH Release (OD490 nm): 4.6 ± 0.1 OD490 nm
HBE cells
  OD490 nm (WST-1 cell viability): 0.26 ± 0.01 OD490 nm
